Measurements as given in PubChem BioAssay AID743090 (Broad Institute, 2013).
Active and inactive are the calls of the source.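 How the source made its calls: active means IC50 below 10 µM in A549 cells, with the call taken as the median across tests; inactive means IC50 above 10 µM in A549 cells.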

Tested on: A549 viability, CellTiter-Glo luminescence, 48 h
Test: A549 cell killing, TP53 wild-type line, dose response, selectivity assay for TP53-mutant selective toxicity project, CellTiter-Glo luminescence, dry powder (AID 743090)

Row | SMILES | IC50
1 | C[C@@H]1CC(=O)NN=C1c1ccc(N)c([N+](=O)[O-])c1 | > 10 µM (inactive)
2 | C[C@@H]1CC(=O)NN=C1c1ccc(C2CCCCC2)cc1 | > 10 µM (inactive)
3 | Cc1ccc(CCC(=O)N2CCN(c3ccc(C4=NNC(=O)CC4C)cc3)CC2)cc1 (stereo not drawn) | > 10 µM (inactive)
4 | CCN(CC)c1ccc(-c2n[nH]c(=O)cc2C)cc1 | > 10 µM (inactive)
5 | CC(=O)Nc1ccc(C2=NNC(=O)C[C@H]2C)cc1C(C)=O | > 10 µM (inactive)
6 | Cc1nc2ccc(C3=NNC(=O)C[C@H]3C)cc2[nH]1 | > 10 µM (inactive)
7 | C[C@@H]1CC(=O)NN=C1c1ccc(N)c(Br)c1 | > 10 µM (inactive)
8 | CCNc1ccc(C2=NNC(=O)C[C@H]2C)cc1[N+](=O)[O-] | > 10 µM (inactive)
9 | CCN(CC)c1ccc(C2=NNC(=O)CC2C)cc1NCCOCCOCCNC(=O)OC(C)(C)C (stereo not drawn) | > 10 µM (inactive)
10 | C[C@@H]1CC(=O)NN=C1c1ccc(N2CCCCS2(=O)=O)cc1 | > 10 µM (inactive)
11 | CC1(C)C(=O)NN=C1c1ccc(N2CCOCC2)cc1 | > 10 µM (inactive)
12 | CC1CC(=O)NN=C1c1ccc(N2CCN(C(=O)Cc3ccc(Cl)cc3Cl)CC2)cc1 (stereo not drawn) | > 10 µM (inactive)
13 | C[C@@H]1CC(=O)NN=C1c1ccc(-c2cncnc2)cc1 | > 10 µM (inactive)
14 | CC(=O)Nc1ccc(C2=NNC(=O)C[C@H]2C)cc1Br | > 10 µM (inactive)
15 | C[C@@H]1CC(=O)NN=C1c1ccc(-n2cnnc2)cc1 | > 10 µM (inactive)
16 | CCN(CC)c1ccc(C2=NNC(=O)CC2C)cc1 (stereo not drawn) | > 10 µM (inactive)
17 | CCCc1ccc(C2=NNC(=O)C[C@H]2C)cc1 | > 10 µM (inactive)
18 | CCN(CC)c1ccc(C2=NNC(=O)C[C@H]2C)cc1 | > 10 µM (inactive)
19 | C[C@@H]1CC(=O)NN=C1c1ccc(N2CCCOC2=O)cc1 | > 10 µM (inactive)
20 | C[C@@H]1CC(=O)NN=C1c1ccc(N2CCOCC2)c(F)c1 | > 10 µM (inactive)
21 | C[C@@H]1CC(=O)NN=C1c1ccc(N2CCN(C)CC2)cc1 | > 10 µM (inactive)

Row | SMILES | IC50
22 | CC1CC(=O)NN=C1c1ccc(N2CCOCC2)c(F)c1 (stereo not drawn) | > 10 µM (inactive)
23 | Cc1cc(=O)[nH]nc1-c1ccc(N)cc1 | > 10 µM (inactive)
24 | C#Cc1cc(C2=NNC(=O)C[C@H]2C)ccc1NC(C)=O | > 10 µM (inactive)
25 | C[C@@H]1CC(=O)NN=C1c1ccc(F)cc1 (racemic) | > 10 µM (inactive)
26 | CCNc1ccc(C2=NNC(=O)C[C@H]2C)cc1 | > 10 µM (inactive)
27 | CCN(CC)c1ccc(C(=O)Nc2ccccc2)cc1[N+](=O)[O-] | > 10 µM (inactive)
28 | CCN(CC)c1ccc(C2=NNC(=O)C[C@H]2C)cc1[N+](=O)[O-] | > 10 µM (inactive)
29 | CCN(CC)c1ccc(C2=NNC(=O)CC2C)cc1NC(C)=O (stereo not drawn) | > 10 µM (inactive)
30 | CC(=O)Nc1ccc(-c2n[nH]c(=O)cc2C)cc1 | > 10 µM (inactive)
31 | CC1(C)C(=O)NN=C1c1ccc(N)cc1 | > 10 µM (inactive)
32 | CC(=O)Nc1ccc(C2=NNC(=O)C[C@H]2C)cc1N | > 10 µM (inactive)
33 | C[C@@H]1CC(=O)NN=C1c1ccc(N2CCOCC2)cc1 (racemic) | > 10 µM (inactive)
34 | C[C@@H]1CC(=O)NN=C1c1ccc(N2CCOCC2)cc1 | > 10 µM (inactive)
35 | C[C@@H]1CC(=O)NN=C1c1ccc(N2CCCCC2)cc1 | > 10 µM (inactive)
36 | CCN(CC)c1ccc(C2=NNC(=O)C2(C)C)cc1 | > 10 µM (inactive)
37 | CC1CC(=O)N(c2ccccc2)N=C1c1ccc(Cl)cc1 (stereo not drawn) | > 10 µM (inactive)
38 | CC(=O)Nc1ccc(C2=NNC(=O)CC2C)cc1 (stereo not drawn) | > 10 µM (inactive)
39 | C[C@@H]1CC(=O)NN=C1c1ccc(C2=CCCCC2)cc1 | > 10 µM (inactive)
40 | O=C1C[C@H]2CCc3cc(N4CCOCC4)ccc3C2=NN1 (racemic) | > 10 µM (inactive)
41 | C[C@@H]1CC(=O)NN=C1c1ccc(N2CCCC2=O)cc1 | > 10 µM (inactive)
42 | C[C@@H]1CC(=O)NN=C1c1ccc(Cl)cc1 | > 10 µM (inactive)

Row | SMILES | IC50
43 | C[C@@H]1CC(=O)NN=C1c1ccc(I)cc1 | > 10 µM (inactive)
44 | CC1CC(=O)NN=C1c1ccc(F)c(F)c1 (stereo not drawn) | > 10 µM (inactive)
45 | CC1(C)C(=O)NN=C1c1ccc([N+](=O)[O-])cc1 | > 10 µM (inactive)
46 | CCN(CC)c1ccc(C2=NNC(=O)CC2C)cc1[N+](=O)[O-] (stereo not drawn) | > 10 µM (inactive)
47 | CC1CC(=O)NN=C1c1cccs1 (stereo not drawn) | > 10 µM (inactive)
48 | CC(=O)N1CCN(c2ccc(C3=NNC(=O)CC3C)cc2F)CC1 (stereo not drawn) | > 10 µM (inactive)
49 | C[C@H]1CC(=O)NN=C1c1ccc(F)c(F)c1 | > 10 µM (inactive)
50 | CCN(CC)c1ccc(-c2nc(C(C)C)no2)cc1[N+](=O)[O-] | > 10 µM (inactive)
51 | CC1(C)C(=O)NN=C1c1ccc(Cl)cc1 | > 10 µM (inactive)
52 | C[C@@H]1CC(=O)NN=C1c1ccc(F)c(F)c1 | > 10 µM (inactive)
53 | CCN(CC)c1ccc(C2=NNC(=O)CC2C)cc1N (stereo not drawn) | > 10 µM (inactive)
54 | O=C1CC(c2ccccc2)=NN1 | > 10 µM (inactive)
55 | CC1C(=O)NN=C1c1ccc([N+](=O)[O-])cc1 (stereo not drawn) | > 10 µM (inactive)
56 | CC(=O)Nc1ccc(C2=NNC(=O)C[C@H]2C)cc1[N+](=O)[O-] | > 10 µM (inactive)
57 | CCN1N=C(c2ccc(N(CC)CC)cc2)[C@H](C)CC1=O | > 10 µM (inactive)
58 | C[C@@H]1CC(=O)NN=C1c1ccc(N2CCCCC2=O)cc1 | > 10 µM (inactive)
59 | C[C@H]1CC(=O)NN=C1c1ccc(N2CCOCC2)c(F)c1 | > 10 µM (inactive)
60 | C[C@@H]1CC(=O)NN=C1c1ccc([Si](C)(C)C)cc1 | > 10 µM (inactive)
61 | CC(=O)Nc1ccc(C2=NNC(=O)C[C@H]2C)cc1 | > 10 µM (inactive)
62 | C/C=C/c1ccc(C2=NNC(=O)C[C@H]2C)cc1 | > 10 µM (inactive)
63 | C[C@@H]1CC(=O)NN=C1c1ccccc1 | > 10 µM (inactive)
